Measured values as given in PMC3990509, “Structures of Trypanosoma brucei Methionyl-tRNA Synthetase with Urea-Based Inhibitors Provide Guidance for Drug Design against Sleeping Sickness” (PLoS Neglected Tropical Diseases, 2014).
“Also recorded” adds a separate entry of the source. Where two headings read alike, the source gives them in different places.

How the values were obtained:
[1] = tested on: T. brucei brucei (bloodstream form strain 427); experiment: T. brucei growth inhibition assay; type: cell-based; details: Trypanosoma brucei, read-out: EC50 (growth of T. brucei in cell culture)
Excerpt: T. brucei brucei (bloodstream form strain 427 from K. Stuart, Seattle BioMed, Seattle, WA) were used for EC50 measurements as previously described, [14].

[2] = molecular target: T1, T. brucei methionyl-tRNA synthetase (TbMetRS) (Trypanosoma brucei brucei, UniProt Q38C91); experiment: T. brucei methionyl-tRNA synthetase aminoacylation assay; type: biochemical; details: for IC50: read-out: IC50 (aminoacylation activity of purified TbMetRS)
T1 construct: hexa-histidine tag (3C protease site) (N, cleaved yes); made in house; host or cells: E. coli
T1 sequence (Q38C91 1-773): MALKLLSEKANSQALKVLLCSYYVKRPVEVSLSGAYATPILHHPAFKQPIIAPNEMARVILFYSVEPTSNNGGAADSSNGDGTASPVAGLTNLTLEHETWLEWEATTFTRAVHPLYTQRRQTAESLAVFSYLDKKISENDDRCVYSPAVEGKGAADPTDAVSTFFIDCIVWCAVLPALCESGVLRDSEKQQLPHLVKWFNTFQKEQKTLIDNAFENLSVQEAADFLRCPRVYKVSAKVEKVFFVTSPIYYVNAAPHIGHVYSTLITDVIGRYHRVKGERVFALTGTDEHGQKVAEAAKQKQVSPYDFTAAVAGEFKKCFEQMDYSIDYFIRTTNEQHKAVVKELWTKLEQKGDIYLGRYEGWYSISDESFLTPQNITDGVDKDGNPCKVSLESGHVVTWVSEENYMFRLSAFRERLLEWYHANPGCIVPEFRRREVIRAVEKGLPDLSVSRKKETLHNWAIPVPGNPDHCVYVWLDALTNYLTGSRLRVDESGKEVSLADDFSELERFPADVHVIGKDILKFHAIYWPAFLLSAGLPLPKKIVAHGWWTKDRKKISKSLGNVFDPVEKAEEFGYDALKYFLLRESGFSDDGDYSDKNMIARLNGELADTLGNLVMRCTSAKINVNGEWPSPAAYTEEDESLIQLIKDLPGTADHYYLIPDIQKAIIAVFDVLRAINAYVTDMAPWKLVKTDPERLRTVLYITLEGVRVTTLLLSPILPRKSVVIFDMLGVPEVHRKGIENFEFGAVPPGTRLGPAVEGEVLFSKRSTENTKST
Description: Compound IC50s were determined in the T. brucei methionyl-tRNA synthetase aminoacylation assay as previously described, [14] except 10 U/mL of pyrophosphatase was used per reaction.

[3] = molecular target: T2, TbMetRS (Trypanosoma brucei brucei, UniProt Q38C91); experiment: Thermal melt of TbMetRS with combinations of ligands (Chem 1433, ATP, AMPPCP, Mg2+); type: binding; details: for change in Tm of TbMetRS in the presence of the nucleotide and Mg2+: compared to TbMetRS only, no inhibitor
T2 construct: hexa-histidine tag (3C protease site) (N, cleaved yes); made in house; host or cells: E. coli
T2 sequence (Q38C91 1-773): T1 sequence (Q38C91 1-773)
Description: Thermal melt experiments on TbMetRS in the presence of different combinations of ligands were performed to determine the nature of the interactions between Chem 1433 and ATP when they are bound to TbMetRS. A similar analysis has been used to establish synergism between an inhibitor of human ProRS, halofuginone, and ATP [25]. An increase in Tm of the TbMetRS•1433 complex upon adding ATP may be an indication of synergism between Chem 1433 and ATP in binding. […] Instead, the addition of ATP-Mg^2+ or AMPPCP-Mg^2+ to the complex of the TbMetRS•Chem 1433 complex result in increase of Tm by an average of 1.6°C (n = 4, P<0.02) and 1.2°C (n = 4, P<0.05), respectively, compared to the Tm of TbMetRS•Chem 1433 alone (Figure S4).
(§1) Supplementary file pntd.0002775.s004.pdf: Figure S4 Thermal melting curves of Tb MetRS in the presence of different ligands. TbMetRS (0.1 mg/ml) is incubated in the presence of different ligands as indicated. The incubation temperature of the samples is increased from 20°C to 90°C and the fluorescence signal from the reporter dye (Sypro Orange) monitored. Melting temperatures (Tm) are calculated from the curves as the temperature where the first derivative value is maximal. The average Tm value of TbMetRS in the presence of Chem 1433, ATP and Mg^2+ (purple dash) is 1.6°C higher than the Tm of TbMetRS in the presence of Chem 1433 only (n = 4, P<0.02). The average Tm of TbMetRS in the presence of Chem 1433, AMPPCP and Mg^2+ (black dot) is 1.2°C higher than the Tm of TbMetRS in the presence of Chem 1433 only (n = 4, P<0.05). Changes in Tm of TbMetRS in the presence of ATP and Mg^2+ or AMPPCP and Mg^2+ compared to TbMetRS only are insignificant (P>0.3 and 0.8 respectively). (PDF) Click here for additional data file.
A typical thermal melting curves of TbMetRS in the presence of different ligands.
as §1, with “TbMetRS” for “Supplementary file pntd.0002775.s004.pdf: Figure S4 Thermal melting curves of Tb MetRS in the presence of different ligands. TbMetRS”, “Mg2+” for “Mg^2+”, “P < 0.02).” for “P<0.02).”, “P < 0.05).” for “P<0.05).”, “(P > 0.3” for “(P>0.3”, “respectively).” for “respectively). (PDF) Click here for additional data file.”
(1 picture or pasted object on this page, not shown here)

[4] = set-up: method as in PMID 22720744; details: cited from earlier work
[5] = tested on: T. brucei infection; set-up: method as in PMID 22720744; details: administered orally; cited from earlier work
[6] = tested on: Staphylococcus aureus MetRS; set-up: method as in PMID 19015366; details: physiological ATP 2500 µM versus 25 µM; cited from earlier work
[7] = molecular target: T1, T. brucei methionyl-tRNA synthetase (TbMetRS); set-up: method as in PMID 22720744; details: previously reported ABI, used for comparison; read-out: IC50 of the ABI Chem 1312 against TbMetRS; cited from earlier work
[8] = tested on: MDR-1 MDCKII; details: cited from earlier work

EC50 [1] [nM] | IC50 [2] [nM] | Compound | other results
170 | – | O=C(NCCCNCc1cc(Cl)cc(Cl)c1)Nc1cccc(O)c1 [Chem 1387] | –
3840 | 316 | O=C(NCCCNCc1cc(Cl)cc(I)c1O)Nc1ccsc1 [Chem 1473] | –
– | – | C=C(F)c1sc(CNCCCNc2cc(O)c3ccccc3n2)c(C)c1Br [REP8839] | fold lower IC50 at 2500 µM ATP than at 25 µM ATP [6]: 30- to 50 fold
9410 | 1360 | Cc1sc2ccccc2c1CNCCCNC(=O)Nc1ccsc1 [Chem 1540] | –
– | – | Nc1ncnc2c1ncn2[C@@H]1O[C@H](COP(=O)(O)OP(=O)(O)OP(=O)(O)O)[C@@H](O)[C@H]1O [ATP] | change in Tm of TbMetRS in the presence of the nucleotide and Mg2+ [3]: does not change significantly; also recorded: insignificant
– | – | Nc1ncnc2c1ncn2C1OC(COP(=O)(O)OP(=O)(O)CP(=O)(O)O)C(O)C1O (stereo not drawn) [AMPPCP, β,γ-methyleneadenosine 5′-triphosphate] | change in Tm of TbMetRS in the presence of the nucleotide and Mg2+ [3]: does not change significantly; also recorded: insignificant
1060 | 96 | C#Cc1cccc(CNCCCNC(=O)Nc2ccsc2)c1 [Chem 1478] | –
2790 | 324 | O=C(NCCCNCc1cc(Cl)sc1Cl)Nc1ccsc1 [Chem 1509] | –
1160 | 1230 | C=CCOc1c(CC=C)cc(Cl)cc1CNCCCNC(=O)Nc1ccsc1 [Chem 1475] | –
9550 | > 10000 | CCOc1c(I)cc(Cl)cc1CNCCCNC(=O)Nc1ccsc1 [Chem 1469] | –
– | – | Oc1cc(NCCCNCc2cc(Cl)cc(Cl)c2)nc2ccccc12 [Chem 1312] | IC50 [7]: 8 nM
210 | – | O=C(NCCCNCc1cc(Cl)cc(Cl)c1)Nc1ccccc1O [Chem 1392] | –
5260 | 198 | C=CCc1cc(Cl)cc(CNCCCNC(=O)Nc2ccsc2)c1O [Chem 1472] | –
1120 | 1680 | C=CCc1cc(Cl)cc(CNCCCNC(=O)Nc2ccsc2)c1OCc1ccccc1 [Chem 1476] | –

Compound | EC50 [1] [nM] | IC50 [2] [nM] | other results
O=C(NCCCNCc1cc(Cl)cc(Cl)c1)Nc1ccsc1 [Chem 1433] | 190 | 28 | fold less favorable IC50 than Chem 1312 ([2]; Chem 1433 (UBI) versus Chem 1312 (ABI)): ~3.5 fold; increase of Tm on addition of ATP-Mg2+ to the TbMetRS•Chem 1433 complex ([3]; compared to Tm of TbMetRS•Chem 1433 alone, n = 4, P<0.02, TbMetRS 0.1 mg/ml): 1.6 °C; increase of Tm on addition of AMPPCP-Mg2+ to the TbMetRS•Chem 1433 complex ([3]; compared to Tm of TbMetRS•Chem 1433 alone, n = 4, P<0.05, TbMetRS 0.1 mg/ml): 1.2 °C; entry into the central nervous system [4]: enter the central nervous system; oral bioavailability [4]: reasonable oral bioavailability; activity against the parasite in a mouse model [5]: moderate activity; also recorded: suppressive activity
COc1cc(Cl)cc(CNCCCNC(=O)Nc2ccsc2)c1 [Chem 1444] | 150 | 19 | –
COc1cc(Cl)cc(CNCCCNC(=O)Nc2ccccc2)c1 [Chem 1415] | 267 | 45 | –
O=C(NCCCNCc1cc(Cl)cc(Cl)c1)Nc1ccccc1 [Chem 1356] | 357 | 57 | entry into the central nervous system [4]: enter the central nervous system; oral bioavailability [4]: reasonable oral bioavailability; activity against the parasite in a mouse model [5]: suppressive activity; membrane permeability [8]: excellent membrane permeability
